In brackets after ≈: the same amount, converted by molar mass. Like-named read-outs stand apart in the source and are kept apart here.
How the values were obtained:
[1] = Mouse microsomal stability; type: in vitro ADME; details: for Mouse microsome (% metabolized in 30 min): 2 μM
Experimental: 4. Method for microsomal stability:
To determine microsomal turnover, test compounds were incubated (2 μM) with liver microsomes in the presence of NADPH, and loss of parent molecule was measured by LC-MS after 30 min.

physchem = details: pH 7.4
[2] = tested on: M. tuberculosis H37Rv expressing DsRed; experiment: microbe, parasite or virus in culture; type: cell-based; details: Mycobacterium tuberculosis, average ± standard deviation for at least 2 runs, read-out: 7H9-Ty-BT MIC
[3] = tested on: M. tuberculosis H37Rv expressing DsRed; experiment: microbe, parasite or virus in culture; type: cell-based; details: Mycobacterium tuberculosis, read-out: 7H9-Tw-OADC MIC
Vero cells (ATCC CCL81) = experiment: Cytotoxicity in Vero cells (CellTiter-Glo); type: cell-based; details: Chlorocebus sabaeus, 48 h, 2 days
Experimental: Vero cells (ATCC® CCL81) were grown in DMEM, high glucose, GlutaMAX™ (Invitrogen), 10% FBS, 50 units/mL penicillin, and 50 µg/mL streptomycin, seeded as 1200 cells per well in 384-well plates and incubated for 24 h at 37 °C with 5% CO2. Compounds were added as a 3-fold serial dilution series and cells incubated for 2 days at 37 °C with 5% CO2. Viability was measured using CellTiter-Glo® Reagent (Promega).

SMILES | CLint scaled at 2 μM ([1]; mouse, microsomes) | Mouse microsome (% metabolized in 30 min) ([1]; mouse, microsomes, 0.5 h) | solubility (physchem) | Mouse microsome (% metabolized in 30 min) ([1]; NADPH, 30 min) | CLint scaled at 2 μM ([1]; mouse, microsomes, Table 1, read-out: Mouse microsome unbound intrinsic clearance) | MIC [2] | MIC [3] | IC50 (Vero cells (ATCC CCL81))
c1coc(-c2nnc(SCc3cccc4ccccc34)o2)c1 [Compound 4] | 1680 mL/min/kg | 95% | < 1 µg/mL | – | – | – | – | –
c1csc(-c2nnc(COc3ccc4c(c3)OCO4)o2)c1 [Compound 5] | – | – | – | 76% | 332 mL/min/kg | – | – | –
c1coc(-c2nnc(Cc3cccc4ccccc34)o2)c1 [Compound 6] | – | 100% | < 1 µg/mL | – | – | 1.1 ± 0.9 µM (≈ 0.304 µg/mL) | > 20 µM | > 100 µM
c1csc(-c2nnc(Cc3ccc4ccccc4c3)o2)c1 [Compound 7] | – | 100% | < 1 µg/mL | – | – | 5.7 ± 0.2 µM (≈ 1.67 µg/mL) | > 20 µM | > 100 µM
c1csc(-c2nnc(Cc3cccc4c3OCCO4)o2)c1 [Compound 8] | – | 99% | 77 µg/mL (≈ 256 µM) | – | – | 0.8 ± 0.2 µM (≈ 0.24 µg/mL) | > 20 µM | > 100 µM
c1ccc(Cc2nnc(-c3cccs3)o2)cc1 [Compound 9] | – | 99% | 31 µg/mL (≈ 128 µM) | – | – | 1.1 ± 0.2 µM (≈ 0.267 µg/mL) | > 20 µM | 79 µM
CN(Cc1nnc(-c2ccco2)s1)Cc1c(F)cccc1Cl [Compound 10] | – | 99% | 20 µg/mL (≈ 59.2 µM) | – | – | 3.2 ± 0.5 µM (≈ 1.08 µg/mL) | > 20 µM | 75 µM
CN(Cc1nnc(-c2cccs2)o1)Cc1c(F)cccc1Cl [Compound 11] | – | 100% | 120 µg/mL (≈ 355 µM) | – | – | 0.6 ± 0.2 µM (≈ 0.203 µg/mL) | > 20 µM | > 100 µM
CN(Cc1nnc(-c2ccccc2)o1)Cc1c(F)cccc1Cl [Compound 12] | – | 100% | 78 µg/mL (≈ 235 µM) | – | – | 0.4 ± 0.2 µM (≈ 0.133 µg/mL) | > 20 µM | > 100 µM
CN(Cc1ccccc1)Cc1nnc(-c2cccs2)o1 [Compound 13] | – | 98% | 420 µg/mL (≈ 1470 µM) | – | – | 0.5 ± 0.1 µM (≈ 0.143 µg/mL) | > 20 µM | > 100 µM
CN(Cc1ccccc1)Cc1nnc(-c2ccco2)o1 [Compound 14] | – | 95% | 400 µg/mL (≈ 1490 µM) | – | – | 0.6 ± 0.2 µM (≈ 0.162 µg/mL) | > 20 µM | > 100 µM
CN(Cc1nnc(-c2ccco2)o1)Cc1ccccc1Cl [Compound 15] | – | 100% | 270 µg/mL (≈ 889 µM) | – | – | 0.6 ± 0.2 µM (≈ 0.182 µg/mL) | > 20 µM | 98 µM
CN(Cc1ccc(F)cc1)Cc1nnc(-c2ccccc2)o1 [Compound 16] | – | – | – | – | – | 0.9 ± 0.03 µM (≈ 0.268 µg/mL) | > 20 µM | 97 µM
CN(Cc1ccc(C(F)(F)F)cc1)Cc1nnc(-c2cccs2)o1 [Compound 17] | – | 98% | 22 µg/mL (≈ 62.3 µM) | – | – | 6.8 ± 2.4 µM (≈ 2.4 µg/mL) | > 20 µM | 87 µM
CN(Cc1ccc(C(F)(F)F)cc1)Cc1nnc(-c2ccccc2)o1 [Compound 18] | – | 99% | 9 µg/mL (≈ 25.9 µM) | – | – | 10.8 ± 3.3 µM (≈ 3.75 µg/mL) | > 20 µM | 80 µM
CN(Cc1nnc(-c2ccco2)o1)CC1CCCCC1 [Compound 19] | – | 100% | 41 µg/mL (≈ 149 µM) | – | – | 0.7 ± 0.5 µM (≈ 0.193 µg/mL) | > 20 µM | 90 µM
Fc1cccc(Cl)c1CNCc1nnc(-c2ccco2)o1 [Compound 20] | – | 99% | 180 µg/mL (≈ 585 µM) | – | – | 5.5 ± 0.4 µM (≈ 1.69 µg/mL) | > 20 µM | > 100 µM
Fc1cccc(Cl)c1COCc1nnc(-c2ccco2)o1 [Compound 21] | – | 100% | 150 µg/mL (≈ 486 µM) | – | – | 6 ± 0.4 µM (≈ 1.85 µg/mL) | > 20 µM | > 100 µM

SMILES | CLint scaled at 2 μM ([1]; mouse, microsomes) | Mouse microsome (% metabolized in 30 min) ([1]; mouse, microsomes, 0.5 h) | solubility (physchem) | Mouse microsome (% metabolized in 30 min) ([1]; NADPH, 30 min) | CLint scaled at 2 μM ([1]; mouse, microsomes, Table 1, read-out: Mouse microsome unbound intrinsic clearance) | MIC [2] | MIC [3] | IC50 (Vero cells (ATCC CCL81))
CN(Cc1nnc(-c2ccco2)o1)C(=O)c1c(F)cccc1Cl [Compound 22] | – | 95% | 640 µg/mL (≈ 1910 µM) | – | – | > 20 µM | > 20 µM | > 100 µM
CN(CCc1c(F)cccc1Cl)c1nnc(-c2ccco2)o1 [Compound 23] | – | 99% | 7 µg/mL (≈ 21.8 µM) | – | – | 4 ± 0.6 µM (≈ 1.29 µg/mL) | > 20 µM | 93 µM
c1csc(-c2nnc(CN3CCCc4ccccc43)o2)c1 [Compound 24] | – | 97% | 5 µg/mL (≈ 16.8 µM) | – | – | 0.8 ± 0.5 µM (≈ 0.238 µg/mL) | > 20 µM | > 100 µM
c1ccc(-c2nnc(CN3CCCc4ccccc43)o2)cc1 [Compound 25] | – | 100% | 3 µg/mL (≈ 10.3 µM) | – | – | 1.7 ± 0.1 µM (≈ 0.495 µg/mL) | > 20 µM | > 100 µM
Fc1ccc(-c2nnc(CN3CCCc4ccccc43)o2)cc1 [Compound 26] | – | 100% | < 2 µg/mL | – | – | 0.2 ± 0.1 µM (≈ 0.0619 µg/mL) | > 20 µM | > 100 µM
FC(F)(F)c1ccc(-c2nnc(CN3CCCc4ccccc43)o2)cc1 [Compound 27] | – | 87% | < 2 µg/mL | – | – | 0.7 ± 0.3 µM (≈ 0.252 µg/mL) | > 20 µM | > 100 µM
c1csc(-c2nnc(CN3CCc4ccccc4C3)o2)c1 [Compound 28] | – | 99% | 54 µg/mL (≈ 182 µM) | – | – | 3.7 ± 0.3 µM (≈ 1.1 µg/mL) | > 20 µM | > 100 µM
c1ccc(-c2nnc(CN3CCc4ccccc4C3)o2)cc1 [Compound 29] | – | 99% | 51 µg/mL (≈ 175 µM) | – | – | 7.7 ± 0.8 µM (≈ 2.24 µg/mL) | > 20 µM | > 100 µM
Fc1ccc(-c2nnc(CN3CCc4ccccc4C3)o2)cc1 [Compound 30] | – | 80% | 40 µg/mL (≈ 129 µM) | – | – | 4.7 ± 1.3 µM (≈ 1.45 µg/mL) | > 20 µM | > 100 µM
FC(F)(F)c1ccc(-c2nnc(CN3CCc4ccccc4C3)o2)cc1 [Compound 31] | – | – | < 2 µg/mL | – | – | > 20 µM | > 20 µM | > 100 µM
c1csc(-c2nnc(CN3CCOc4ccccc43)o2)c1 [Compound 32] | – | 99% | 33 µg/mL (≈ 110 µM) | – | – | 1.8 ± 0.6 µM (≈ 0.539 µg/mL) | > 20 µM | > 100 µM
c1ccc(-c2nnc(CN3CCOc4ccccc43)o2)cc1 [Compound 33] | – | 99% | 28 µg/mL (≈ 95.5 µM) | – | – | 2.8 ± 1.7 µM (≈ 0.821 µg/mL) | > 20 µM | > 100 µM
Fc1ccc(-c2nnc(CN3CCOc4ccccc43)o2)cc1 [Compound 34] | – | 98% | < 2 µg/mL | – | – | 1.8 ± 0.4 µM (≈ 0.56 µg/mL) | > 20 µM | > 100 µM
FC(F)(F)c1ccc(-c2nnc(CN3CCOc4ccccc43)o2)cc1 [Compound 35] | – | 95% | < 2 µg/mL | – | – | 8.3 ± 1.7 µM (≈ 3 µg/mL) | > 20 µM | 85 µM
c1csc(-c2nnc(CN3CCc4ccccc43)o2)c1 [Compound 36] | – | 99% | 38 µg/mL (≈ 134 µM) | – | – | 2.1 ± 0.1 µM (≈ 0.595 µg/mL) | > 20 µM | > 100 µM
c1ccc(-c2nnc(CN3CCc4ccccc43)o2)cc1 [Compound 37] | – | 99% | 21 µg/mL (≈ 75.7 µM) | – | – | 2.3 ± 0.9 µM (≈ 0.638 µg/mL) | > 20 µM | > 100 µM
c1csc(-c2nnc(CN3Cc4ccccc4C3)o2)c1 [Compound 38] | – | 99% | 12 µg/mL (≈ 42.3 µM) | – | – | 6.7 ± 1.7 µM (≈ 1.9 µg/mL) | > 20 µM | > 100 µM

Source: publication PMC5946847, “Synthesis and biological evaluation of aryl-oxadiazoles as inhibitors of Mycobacterium tuberculosis” (Bioorganic & Medicinal Chemistry Letters, 2018)
